The results in this text go back to article PMC11557314 (Frontiers in Pharmacology, 2024).

Test [1] addresses T1, hKOPr (Homo sapiens, UniProt P41145). Briefly: biochemical. As to conditions: for Emax: read-out: Efficacy at hKOPr Emax.
The target of a further test is hDOPr (Homo sapiens, UniProt P41143). Briefly: [35S]GTPγS functional assay on hDOPr-CHO cell membranes. As to conditions: Table 3, mean ± SEM; for hDOPr % stim, stimulation of [35S]GTPγS binding: normalized to DynA; for EC50: read-out: hDOPr EC50, stimulation of [35S]GTPγS binding. In kind it is biochemical. On the procedure:
CHO cells stably transfected with human KOPr, MOPr, and DOPr (hKOPr-CHO, hMOPr-CHO, and hDOPr-CHO, respectively) were provided by Prof. Liu-Chen (Temple University, Philadelphia, United States). The cells were grown in Gibco™ Dulbecco’s minimal essential medium (DMEM) for hKOPr-CHO or Gibco™ DMEM/F-12 for hMOPr and hDOPr. Both media were supplemented with 10% FBS (Gibco™), GlutaMAX (100 μg/mL; Gibco™), penicillin/streptomycin (100 μg/mL; Gibco™), and geneticin (G418, 400 μg/mL; Gibco™). HEK 293 cells were grown in high-glucose DMEM supplemented with 10% FBS (Gibco™), GlutaMAX (100 μg/mL; Gibco™), and penicillin/streptomycin (100 μg/mL; Gibco™). Cell cultures were maintained in a Heracell™ 150i CO2 incubator at 37°C and 5.0% CO2.
Functional assays were conducted on hKOPr-CHO, hMOPr-CHO, and hDOPr-CHO cell membranes (see above). The membranes were prepared in a buffer containing 20 mM HEPES, 10 μM GDP, cell membrane (10–30 μg), and 0.05 nM [^35S]GTPγS. The buffer containing the cell membranes was incubated with an increasing concentration of the test peptide diluted in 1 × HEPES, pH 7.4, in a total volume of 1 mL, for 60 min at 25°C. The peptide solutions were replaced by diluents for untreated controls. Non-specific binding was determined using unlabeled 10 μM GTPγS. Samples were rapidly washed three times with Tris-HCl and filtered through glass fiber filters (GF/B Whatman). The bound radioactivity was measured by liquid scintillation (Carl Roth GmbH, Karlsruhe, Germany) counting on a Packard 1600 TR Tri-Carb Beta counter (Canberra, Belgium).
On the technique in general: GTPγS resists hydrolysis and so accumulates on activated G proteins.

The target of test [2] is T2, hMOPr (Homo sapiens, UniProt P35372). The test is described as follows: Competitive radio binding assay with [3H]-DAMGO on hMOPr-CHO cell membranes. As to conditions: read-out: Ki hMOPr; [3H]-DAMGO 1 nM, 60 min 25°C; mean ± SEM.
Test [3] has as its target T2, hMOPr. Format: biochemical. Conditions: for EC50: read-out: hMOPr EC50, stimulation of [35S]GTPγS binding.
The target in test [4] is T1, hKOPr. In kind it is binding. Conditions: for Ki: read-out: Ki hKOPr.
Test [5] relates to p38 phosphorylation in hKOPr-CHO cells. Briefly: Western blot of phospho-p38 in hKOPr-CHO cells. In kind it is cell-based, human. As to conditions: 1 µM, 10 min, ratio phosphorylated to non-phosphorylated protein. On the procedure:
hKOPr-CHO cells were seeded in 10-cm dishes and cultured until they reached 70%–80% confluency. Overnight serum starvation was initiated by replacing the culture medium with FBS-free medium [DMEM supplemented with 100 μg/mL GlutaMAX, 100 μg/mL penicillin/streptomycin, and 400 μg/mL geneticin (G418)]. […] The FBS-free medium was used as the control. After the treatment, cells were rinsed and harvested in cold PBS by scraping the dishes using a rubber policeman. Cell suspensions were centrifuged at 4°C for 7 min at 21,000 g, and the supernatants were removed. Pellets were then resuspended and washed in ice-cold PBS. […] Total proteins of the supernatant cell lysate were quantified by the biuret assay (Carl Roth GmbH, Karlsruhe, Germany). Antibody linearity ranges were determined for target proteins and the internal loading control, and the combined linear range was then used to determine how much sample should be loaded in order to produce a linear signal response. […] Immunoreactive bands were detected by incubating the membranes in a horseradish peroxidase-conjugated secondary antibody (1:5,000, Invitrogen), followed by incubation with enhanced chemiluminescence reagent (Merck Immobilon). […] To avoid errors introduced by stripping the membranes, total and phosphorylated proteins were analyzed from parallel gels. […]

[6] abbreviates: read-out: Potency at hKOPr EC50.
Setting [7] is: read-out: hKOPr EC50, stimulation of [35S]GTPγS binding.

Where two headings read alike, the source gives them in different places. Where no end group is shown, it is not given here.

The term Emax denotes the greatest response seen or fitted, relative to the assay's reference. In general, EC50 refers to the midpoint of the concentration-response curve. One may read the Ki as the equilibrium dissociation constant of an inhibitor or competing ligand from its target.

hDOPr, sequence (P41143 whole entry): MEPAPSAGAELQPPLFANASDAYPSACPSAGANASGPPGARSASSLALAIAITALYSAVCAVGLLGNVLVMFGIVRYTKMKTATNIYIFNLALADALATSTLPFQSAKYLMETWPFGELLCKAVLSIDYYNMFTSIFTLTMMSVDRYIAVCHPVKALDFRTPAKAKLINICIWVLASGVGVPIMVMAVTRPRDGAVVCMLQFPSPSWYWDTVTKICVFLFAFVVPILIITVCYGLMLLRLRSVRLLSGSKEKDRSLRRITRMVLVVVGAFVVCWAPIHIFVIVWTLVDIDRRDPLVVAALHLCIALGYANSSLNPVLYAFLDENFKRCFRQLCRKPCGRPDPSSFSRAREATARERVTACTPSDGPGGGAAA
T2 sequence (P35372 whole entry): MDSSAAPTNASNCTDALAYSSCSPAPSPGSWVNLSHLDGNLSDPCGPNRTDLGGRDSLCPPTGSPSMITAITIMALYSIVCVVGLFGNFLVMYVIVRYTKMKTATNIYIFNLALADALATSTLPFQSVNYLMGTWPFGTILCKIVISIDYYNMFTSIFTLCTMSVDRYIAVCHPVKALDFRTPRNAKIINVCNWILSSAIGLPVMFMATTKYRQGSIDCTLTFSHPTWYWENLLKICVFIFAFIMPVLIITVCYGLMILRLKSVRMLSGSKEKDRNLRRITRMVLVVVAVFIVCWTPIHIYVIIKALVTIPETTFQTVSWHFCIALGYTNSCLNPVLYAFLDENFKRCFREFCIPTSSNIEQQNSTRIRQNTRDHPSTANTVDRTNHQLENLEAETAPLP
T1 sequence (P41145 whole entry): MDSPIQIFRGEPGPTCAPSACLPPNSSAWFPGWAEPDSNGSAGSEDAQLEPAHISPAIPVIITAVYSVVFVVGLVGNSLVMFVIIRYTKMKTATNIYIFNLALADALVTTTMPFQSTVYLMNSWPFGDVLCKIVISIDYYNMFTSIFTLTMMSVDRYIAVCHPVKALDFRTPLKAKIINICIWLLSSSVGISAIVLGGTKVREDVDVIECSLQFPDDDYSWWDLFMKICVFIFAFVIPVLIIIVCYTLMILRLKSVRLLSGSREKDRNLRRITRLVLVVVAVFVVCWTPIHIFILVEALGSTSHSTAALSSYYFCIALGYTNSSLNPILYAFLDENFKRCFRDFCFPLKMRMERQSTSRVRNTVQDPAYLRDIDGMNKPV

With YGAFLRRAFKVVT [DynB_G3A/Q8A], at hKOPr [1], the “Selectivity DOPr/KOPr (GTPγS)” value is 84; the “Selectivity MOPr/KOPr (GTPγS)” value stood at 20; the “hKOPr % stim, stimulation of [35S]GTPγS binding” value is reported as 88.6 ± 3.1%; the “potency for hKOPr as compared to DynB (GTPγS)” value is “minor reduction in the potency”. Besides, on hKOPr [1], the “preference for hKOPr over hDOPr (GTPγS)” value came out at 84 fold, the “preference for hKOPr over hMOPr (GTPγS)” value is listed as 20 fold and the Emax was 88.6 ± 3.1%. The EC50 on hKOPr [1] (setting [6]) came to 14.6 ± 1.57 nM. In addition, the EC50 at hKOPr [1] (setting [7]) stood at 14.6 ± 1.6 nM. Besides, on hDOPr, the “hDOPr % stim, stimulation of [35S]GTPγS binding” value is 86.4 ± 10.3% and the 50% effective concentration (EC50) amounted to 1230 nM. At hMOPr [2], the Ki was 86.1 ± 7 nM. Further, on hMOPr [3], the “hMOPr % stim, stimulation of [35S]GTPγS binding” value came out at 111 ± 7.7% and the half-maximal effective concentration (EC50) stood at 297 ± 46.6 nM. Moreover, at hKOPr [4], the “Selectivity DOPr/KOPr” value turned out to be 778, the “Selectivity MOPr/KOPr” value stood at 161 and the inhibitory constant (Ki) was determined as 0.54 nM. The “p38 phosphorylation compared to DynB_WT” value in test [5] is “significantly less phosphorylated”.

For the sequence YGGFSRRQFKVVT [DynB_L5S], on hKOPr [1], the “Selectivity DOPr/KOPr (GTPγS)” value is given as 17; the “Selectivity MOPr/KOPr (GTPγS)” value was found to be 6; the “hKOPr % stim, stimulation of [35S]GTPγS binding” value turned out to be 99.1 ± 2.1%; the “preference for hKOPr over hDOPr (GTPγS)” value was found to be 17 fold. For the same sequence, on hKOPr [1], the Emax came to 99.1 ± 2.1%. In addition, the EC50 on hKOPr [1] (setting [6]) is 17.7 ± 2.84 nM. In addition, the EC50 at hKOPr [1] (setting [7]) came out at 17.7 ± 2.8 nM. On hDOPr, the “hDOPr % stim, stimulation of [35S]GTPγS binding” value was 86.7 ± 9.2% and the EC50 is 310 ± 50.4 nM. Further, at hMOPr [2], the inhibitory constant (Ki) stood at 18.6 ± 1.3 nM. On hMOPr [3], the “hMOPr % stim, stimulation of [35S]GTPγS binding” value was found to be 93.4 ± 5.6% and the concentration giving a half-maximal response (EC50) amounted to 107 ± 8.6 nM. For the same sequence, on hKOPr [4], the “Selectivity DOPr/KOPr” value was 4,153, the “Selectivity MOPr/KOPr” value is recorded as 135 and the inhibition constant Ki came out at 0.14 nM. Also, the “p38 phosphorylation compared to DynB_WT” value in test [5] is given as “significantly less phosphorylated”.
